Counter-ions that a name gives are not always drawn.
Tests used:
Assay type in all cases: cell-based, human
[1] = test system: MOLM-14 (acute myeloid leukemia) cell line; assay: CellTiter-Glo luminescent cell viability assay, MOLM-14; details: Homo sapiens; for EC50: MOLM-14 cell line, 72 h incubation, CellTiter-Glo, read-out: EC50, growth inhibition of MOLM-14; for viability at 4 µM: MOLM-14, compound at 4 μM; for viability at 4 µM / viability at 10 µM: 72 h; for viability at 10 µM: MOLM-14, compound at 10 μM
Procedure, shortened: (§1)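 Each line grew in its own medium (DMEM low glucose for HepG2, DMEM for Huh7 and PANC-1, MEM alpha for MOLM-14) plus 10% FBS. Three-day compound treatment preceded luminescence reading; EC50 reflects 50% loss of diluent-control signal.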

[2] = test system: A375 (malignant melanoma) cell line; assay: CellTiter-Glo luminescent cell viability assay, A375; details: Homo sapiens, A-375; for EC50: A375 cell line, 72 h incubation, CellTiter-Glo, read-out: EC50, growth inhibition of A375; for viability at 4 µM: A375, compound at 4 μM; for viability at 4 µM / viability at 10 µM: 72 h; for viability at 10 µM: A375, compound at 10 μM
Procedure, shortened: (§2)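 72 h compound exposure, 37 °C, 5% CO2, 10% FBS medium; ATP luminescence read after 30 min RT equilibration. Viability as % of H2O/DMSO diluent control; EC50 = dose giving 50% of control signal. Duplicate points minimum.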

[3] = test system: HepG2 (hepatocellular carcinoma) cell line; assay: CellTiter-Glo luminescent cell viability assay, HepG2; details: Homo sapiens; for EC50: HepG2 cell line, 72 h incubation, CellTiter-Glo, read-out: EC50, growth inhibition of HepG2; for viability at 4 µM / viability at 10 µM: HepG2, HepG, 72 h; for viability at 4 µM: compound at 4 μM; for viability at 10 µM: compound at 10 μM
Procedure, shortened: as §1

[4] = test system: 786-O (renal adenocarcinoma) cell line; assay: CellTiter-Glo luminescent cell viability assay, 786-O; details: Homo sapiens, 786-0; for EC50: 786-O cell line, 72 h incubation, CellTiter-Glo, read-out: EC50, growth inhibition of 786-O; for viability at 4 µM / viability at 10 µM: 786-O, 72 h; for viability at 4 µM: compound at 4 μM; for viability at 10 µM: compound at 10 μM
Procedure, shortened: as §2

[5] = test system: HCT-116 (colorectal carcinoma) cell line; assay: CellTiter-Glo luminescent cell viability assay, HCT-116; details: Homo sapiens; for EC50: HCT-116 cell line, 72 h incubation, CellTiter-Glo, read-out: EC50, growth inhibition of HCT-116; for viability at 4 µM: HCT-116, compound at 4 μM; for viability at 4 µM / viability at 10 µM: 72 h; for viability at 10 µM: HCT-116, compound at 10 μM
Procedure, shortened: as §2

[6] = test system: Huh7 (hepatocellular carcinoma) cell line; assay: CellTiter-Glo luminescent cell viability assay, Huh7; details: Homo sapiens, Huh-7; for EC50: Huh7 cell line, 72 h incubation, CellTiter-Glo, read-out: EC50, growth inhibition of Huh7; for viability at 4 µM: Huh7, compound at 4 μM; for viability at 4 µM / viability at 10 µM: 72 h; for viability at 10 µM: Huh7, compound at 10 μM
Procedure, shortened: as §1

## Clc1ccc(CNc2cc(N3CC[C@@H](Oc4ccccc4)C3)c3ccccc3n2)cc1 [Compound 3012, (3R) 2-(4-chlorobenzylamino)-4-[3-(phenoxy)pyrrolidin-1-yl]quinoline hydrochloride]
[1]
  EC50: 0.5 to 5 µM
[2]
  EC50: 0.5 to 5 µM
[3]
  EC50: 0.5 to 5 µM
[4]
  EC50: 0.5 to 5 µM
[5]
  EC50: 0.5 to 5 µM
[6]
  EC50: 0.5 to 5 µM

## Clc1ccc(CNc2cc(N3CC[C@@H](Oc4ccccn4)C3)c3ccccc3n2)cc1 [Compound 3026, (3R) 2-(4-chlorobenzylamino)-4-[3-(pyridin-2-yloxy)pyrrolidin-1-yl]quinoline hydrochloride]
[1]
  EC50: 0.5 to 5 µM
[2]
  EC50: 0.5 to 5 µM
[3]
  EC50: 0.5 to 5 µM
[4]
  EC50: 0.5 to 5 µM
[5]
  EC50: 0.5 to 5 µM
[6]
  EC50: 0.5 to 5 µM

## O[C@H]1CCN(c2cc(NCc3ccc(Cl)cc3)nc3ccccc23)C1 [Compound 3060, (3S) 2-(4-chlorobenzylamino)-4-(3-hydroxypyrrolidin-1-yl)-quinoline hydrochloride]
[1]
  EC50: 0.5 to 5 µM
[2]
  EC50: 0.5 to 5 µM
[3]
  EC50: 0.5 to 5 µM
[4]
  EC50: 5 to 10 µM
[5]
  EC50: 0.5 to 5 µM
[6]
  EC50: 0.5 to 5 µM

## Clc1ccc(CNc2cc(N3CC[C@H](Oc4ccccn4)C3)c3ccccc3n2)cc1 [Compound 3098, (3S) 2-(4-chlorobenzylamino)-4-[3-(pyridin-2-yloxy)pyrrolidin-1-yl]quinoline hydrochloride]
[1]
  EC50: 0.5 to 5 µM
[2]
  EC50: 0.5 to 5 µM
[3]
  EC50: 0.5 to 5 µM
[4]
  EC50: 0.5 to 5 µM
[5]
  EC50: 0.5 to 5 µM
[6]
  EC50: 0.5 to 5 µM

## Cc1cc(Nc2nc3ccccc3c(N3CCC(NC(C)(C)C)CC3)c2C#N)ccc1Nc1nccc(-c2cccnc2)n1 [Compound 3131CN, 2-[4-(4-(pyridin-3-yl)pyrimidin-2-ylamino)-3-methylphenylamino]-3-cyano-4-(4-tert-butylaminopiperidin-1-yl)quinoline]
[1]
  viability at 4 µM: 80.1%
  viability at 10 µM: 7.3%
[2]
  viability at 4 µM: 79.4%
  viability at 10 µM: 0.1%
[3]
  viability at 4 µM: 80.6%
  viability at 10 µM: 0.1%
[4]
  viability at 4 µM: 42.6%
  viability at 10 µM: 0.1%
[5]
  viability at 4 µM: 63.9%
  viability at 10 µM: 0.1%
[6]
  viability at 4 µM: 87%
  viability at 10 µM: 69.8%

## N#Cc1c(NCc2ccc(Cl)cc2)nc2ccccc2c1N1CCCC(Oc2ccccc2)C1 (stereo not shown) [Compound 3206CN, 2-(4-chlorobenzylamino)-3-cyano-4-(3-phenoxypiperidin-1-yl)quinoline]
[1]
  viability at 4 µM: 96%
  viability at 10 µM: 107%
[2]
  viability at 4 µM: 111%
  viability at 10 µM: 104%
[3]
  viability at 4 µM: 72.4%
  viability at 10 µM: 65%
[4]
  viability at 4 µM: 79.9%
  viability at 10 µM: 75.1%
[5]
  viability at 4 µM: 97.9%
  viability at 10 µM: 91.2%
[6]
  viability at 4 µM: 107%
  viability at 10 µM: 95.1%

## COc1ccc(OC2CCN(c3c(C#N)c(NCc4ccc(Cl)cc4)nc4ccccc34)CC2)cc1 [Compound 3224CN, 2-(4-chlorobenzylamino)-3-cyano-4-[4-(4-methoxyphenoxy)piperidin-1-yl]quinoline]
[1]
  viability at 4 µM: 112%
  viability at 10 µM: 94.6%
[2]
  viability at 4 µM: 96%
  viability at 10 µM: 91.7%
[3]
  viability at 4 µM: 91.6%
  viability at 10 µM: 70%
[4]
  viability at 4 µM: 96.3%
  viability at 10 µM: 88.9%
[5]
  viability at 4 µM: 89.8%
  viability at 10 µM: 65.1%
[6]
  viability at 4 µM: 116%
  viability at 10 µM: 90%

## N#Cc1c(NCc2ccc(Cl)cc2)nc2ccccc2c1N1CCC(Oc2ccc(Cl)cc2)CC1 [Compound 3226CN, 2-(4-chlorobenzylamino)-3-cyano-4-[4-(4-chlorophenoxy)piperidin-1-yl]quinoline]
[1]
  viability at 4 µM: 101%
  viability at 10 µM: 97.8%
[2]
  viability at 4 µM: 97.8%
  viability at 10 µM: 94.1%
[3]
  viability at 4 µM: 94%
  viability at 10 µM: 82.8%
[4]
  viability at 4 µM: 96%
  viability at 10 µM: 89.8%
[5]
  viability at 4 µM: 96.8%
  viability at 10 µM: 86.8%
[6]
  viability at 4 µM: 117%
  viability at 10 µM: 109%

## N#Cc1c(NCc2ccc(Cl)cc2)nc2ccccc2c1N1CCC(Oc2cccc(F)c2)CC1 [Compound 3228CN, 2-(4-chlorobenzylamino)-3-cyano-4-[4-(3-fluorophenoxy)piperidin-1-yl]quinoline]
[1]
  viability at 4 µM: 107%
  viability at 10 µM: 100%
[2]
  viability at 4 µM: 98%
  viability at 10 µM: 91.7%
[3]
  viability at 4 µM: 96.7%
  viability at 10 µM: 86.7%
[4]
  viability at 4 µM: 97.9%
  viability at 10 µM: 92.9%
[5]
  viability at 4 µM: 101%
  viability at 10 µM: 85.2%
[6]
  viability at 4 µM: 117%
  viability at 10 µM: 108%

## COc1ccc(OC2CCCN(c3c(C#N)c(NCc4ccc(Cl)cc4)nc4ccccc34)C2)cc1 (stereo not shown) [Compound 3232CN, 2-(4-chlorobenzylamino)-3-cyano-4-[3-(4-methoxyphenoxy)piperidin-1-yl]quinoline]
[1]
  viability at 4 µM: 91.1%
  viability at 10 µM: 99.8%
[2]
  viability at 4 µM: 104%
  viability at 10 µM: 99.4%
[3]
  viability at 4 µM: 79.9%
  viability at 10 µM: 72.3%
[4]
  viability at 4 µM: 79.9%
  viability at 10 µM: 73.5%
[5]
  viability at 4 µM: 93.9%
  viability at 10 µM: 82.9%
[6]
  viability at 4 µM: 98.7%
  viability at 10 µM: 90.3%

## Cc1ccc(OC2CCCN(c3c(C#N)c(NCc4ccc(Cl)cc4)nc4ccccc34)C2)cc1 (stereo not shown) [Compound 3234CN, 2-(4-chlorobenzylamino)-3-cyano-4-[3-(4-methylphenoxy)piperidin-1-yl]quinoline]
[1]
  viability at 4 µM: 94.4%
  viability at 10 µM: 92%
[2]
  viability at 4 µM: 107%
  viability at 10 µM: 102%
[3]
  viability at 4 µM: 89.8%
[4]
  viability at 4 µM: 89.8%
  viability at 10 µM: 80.5%
[5]
  viability at 4 µM: 93.8%
  viability at 10 µM: 90.7%
[6]
  viability at 4 µM: 99.2%
  viability at 10 µM: 95.5%

## N#Cc1c(NCc2ccc(Cl)cc2)nc2ccccc2c1N1CCCC(Oc2ccc(F)cc2)C1 (stereo not shown) [Compound 3238CN, 2-(4-chlorobenzylamino)-3-cyano-4-[3-(4-fluorophenoxy)piperidin-1-yl]quinoline]
[1]
  viability at 4 µM: 101%
  viability at 10 µM: 91.6%
[2]
  viability at 4 µM: 106%
  viability at 10 µM: 102%
[3]
  viability at 4 µM: 95.9%
  viability at 10 µM: 90.8%
[4]
  viability at 4 µM: 90.7%
  viability at 10 µM: 86.1%
[5]
  viability at 4 µM: 97.8%
  viability at 10 µM: 85.1%
[6]
  viability at 4 µM: 97.7%
  viability at 10 µM: 93.7%

## N#Cc1c(NCc2ccc(Cl)cc2)nc2ccccc2c1N1CCCC(Oc2cccc(F)c2)C1 (stereo not shown) [Compound 3240CN, 2-(4-chlorobenzylamino)-3-cyano-4-[3-(3-fluorophenoxy)piperidin-1-yl]quinoline]
[1]
  viability at 4 µM: 106%
  viability at 10 µM: 113%
[2]
  viability at 4 µM: 95.6%
  viability at 10 µM: 94.9%
[3]
  viability at 4 µM: 97%
[4]
  viability at 4 µM: 98.2%
  viability at 10 µM: 94.5%
[5]
  viability at 4 µM: 99.4%
  viability at 10 µM: 95.8%
[6]
  viability at 4 µM: 123%
  viability at 10 µM: 113%

From patent US10577362B2, “Substituted 2, 4-diamino-quinoline derivatives for use in the treatment of proliferative diseases” (GENOSCIENCE PHARMA, priority 2016, dated 2020)
